In patent US20140329682A1, “METHOD OF CONTROLLING WEED IN A SUGAR CANE FIELD” (SUMITOMO CHEMICAL COMPANY, LIMITED, priority 2011, published 2014):

What was measured:
[1] = tested on: Amaranthus retroflexus; test: Herbicidal activity, spray above weed one week before planting (Example 5); format: in vivo; details: sprayed above weed three weeks after seeding, 3 cm stem cutting planted one week after treatment, four weeks after treatment
[2] = tested on: sugar cane; test: Phytotoxicity on sugar cane, spray above weed one week before planting (Example 5)
Method: (§1) The “phytotoxicity” evaluated herein is the damage characteristic determined to be due to a treated compound, and is clearly discriminated from the damage characteristic caused by a harmful animal or plant disease.
(§2) A soil is packed into a plastic pot, and seeds of Amaranthus retroflexus are seeded thereon. Thereafter, the pot is placed in a greenhouse, and the weed is grown.
(§3) A 30 cm to 40 cm stem cutting of sugar cane is placed on a wet soil, and germination is stimulated. The stem cutting from which a bud has been grown to about 1 cm is selected, and the length of the stem cutting is adjusted to be 3 cm so that the stem cutting has one node.
(§4) The pot for a test is placed in a greenhouse.

[3] = tested on: Amaranthus retroflexus; test: Herbicidal activity, soil surface spray, insecticide-treated stem cutting (Example 6); format: in vivo; details: 3 cm stem cutting treated with clothianidin, thiamethoxiam, imidacloprid, dinotefuran, nitenpyram, acetamiprid or thiacloprid, four weeks after treatment
Method: A 30 cm to 40 cm stem cutting of sugar cane is placed on a wet soil, and germination is stimulated. The stem cutting from which a bud has grown to about 1 cm is selected, and the length of the stem cutting is adjusted to be 3 cm so that the stem cutting has one node. Clothianidin, thiamethoxiam, imidacloprid, dinotefuran, nitenpyram, acetamiprid or thiacloprid is adhered to the stem cutting. A soil is packed into a plastic pot, and seeds of Amaranthus retroflexus are seeded thereon. The stem cutting of sugar cane treated with clothianidin, thiamethoxiam, imidacloprid, dinotefuran, nitenpyram, acetamiprid or thiacloprid is planted in the soil packed into the pot at a depth of 2 cm. […] Thereafter, the pot for a test is placed in a greenhouse.

[4] = tested on: sugar cane; test: Phytotoxicity on sugar cane, spray above weed before planting, insecticide-treated stem cutting (Example 7)
Method: as §1, §2
as §3, with “has” for “has been”, “node. Clothianidin, thiamethoxiam, imidacloprid, dinotefuran, nitenpyram, acetamiprid or thiacloprid is adhered to the stem cutting.” for “node.”
as §4

[5] = tested on: Amaranthus retroflexus; test: Herbicidal activity, soil surface spray, strobilurin-treated stem cutting (Example 8); format: in vivo; details: 3 cm stem cutting treated with kresoxim-methyl, azoxystrobin or another listed strobilurin fungicide, four weeks after treatment
Source text: A 30 cm to 40 cm stem cutting of sugar cane is placed on a wet soil, and germination is stimulated. The stem cutting from which a bud has grown to about 1 cm is selected, and the length of the stem cutting is adjusted to be 3 cm so that the stem cutting has one node. Kresoxim-methyl, azoxystrobin, trifloxystrobin, fluoxastrobin, picoxystrobin, pyraclostrobin, dimoxystrobin, pyribencarb, metominostrobin, orysastrobin, enestrobin, pyraoxystrobin or pyrametostrobin is adhered to the stem cutting. A soil is packed into a plastic pot, and seeds of Amaranthus retroflexus are seeded thereon. The stem cutting of sugar cane treated with kresoxim-methyl, azoxystrobin, trifloxystrobin, fluoxastrobin, picoxystrobin, pyraclostrobin, dimoxystrobin, pyribencarb, metominostrobin, orysastrobin, enestrobin, pyraoxystrobin or pyrametostrobin is planted in the soil packed into the pot at a depth of 2 cm. […] Thereafter, the pot for a test is placed in a greenhouse.

[6] = tested on: Amaranthus retroflexus; test: Herbicidal activity, spray above weed before planting, strobilurin-treated stem cutting (Example 9); format: in vivo; details: sprayed above weed, 3 cm stem cutting treated with kresoxim-methyl, azoxystrobin or another listed strobilurin fungicide planted one week after treatment, four weeks after treatment
Source text: A 30 cm to 40 cm stem cutting of sugar cane is placed on a wet soil, and germination is stimulated. The stem cutting from which a bud has grown to about 1 cm is selected, and the length of the stem cutting is adjusted to be 3 cm so that the stem cutting has one node. Kresoxim-methyl, azoxystrobin, trifloxystrobin, fluoxastrobin, picoxystrobin, pyraclostrobin, dimoxystrobin, pyribencarb, metominostrobin, orysastrobin, enestrobin, pyraoxystrobin or pyrametostrobin is adhered to the stem cutting.

[7] = tested on: sugar cane; test: Phytotoxicity on sugar cane, spray above weed before planting, strobilurin-treated stem cutting (Example 9)
Method: as §1, §2
as §3, with “has” for “has been”, “node. Kresoxim-methyl, azoxystrobin, trifloxystrobin, fluoxastrobin, picoxystrobin, pyraclostrobin, dimoxystrobin, pyribencarb, metominostrobin, orysastrobin, enestrobin, pyraoxystrobin or pyrametostrobin is adhered to the stem cutting.” for “node.”
as §4

[8] = tested on: Amaranthus retroflexus; test: Herbicidal activity, soil surface spray, azole-fungicide-treated stem cutting (Example 10); format: in vivo; details: 3 cm stem cutting treated with azaconazole, bitertanol or another listed azole-type fungicide, four weeks after treatment
[9] = tested on: sugar cane; test: Phytotoxicity on sugar cane, soil surface spray, azole-fungicide-treated stem cutting (Example 10)
Source text: as §1
A 30 to 40 cm stem cutting of sugar cane is placed on a wet soil, and germination is stimulated. The stem cutting from which a bud has grown to about 1 cm is selected, and the length of the stem cutting is adjusted to be 3 cm so that the stem cutting has one node. Azaconazole, bitertanol, bromoconazole, cyproconazole, difenoconazole, diniconazole, epoxyconazole, fenbuconazole, fluquinconazole, flusilazole, flutriafol, hexaconazole, imibenconazole, ipconazole, metconazole, myclobutanil, penconazole, propiconazole, prothioconazole, simeconazole, tebuconazole, tetraconazole, triadimenol, triticonazole, fenarimol, nuarimol, pyrifenox, imazalil, oxpoconazole fumarate, pefurazoate, procloraz or triflumizole is adhered to the stem cutting. A soil is packed into a plastic pot, and seeds of Amaranthus retroflexus are seeded thereon. The stem cutting of sugar cane treated with azaconazole, bitertanol, bromoconazole, cyproconazole, difenoconazole, diniconazole, epoxyconazole, fenbuconazole, fluquinconazole, flusilazole, flutriafol, hexaconazole, imibenconazole, ipconazole, metconazole, myclobutanil, penconazole, propiconazole, prothioconazole, simeconazole, tebuconazole, tetraconazole, triadimenol, triticonazole, fenarimol, nuarimol, pyrifenox, imazalil, oxpoconazole fumarate, pefurazoate, procloraz or triflumizole is planted in the soil packed into the pot at a depth of 2 cm. […] Thereafter, the pot for a test is placed in a greenhouse.

[10] = tested on: Amaranthus retroflexus; test: Herbicidal activity, spray above weed before planting, azole-fungicide-treated stem cutting (Example 11); format: in vivo; details: sprayed above weed, 3 cm stem cutting treated with azaconazole, bitertanol or another listed azole-type fungicide planted one week after treatment, four weeks after treatment
[11] = tested on: sugar cane; test: Phytotoxicity on sugar cane, spray above weed before planting, azole-fungicide-treated stem cutting (Example 11)
Method: as §1
A soil is packed into a plastic pat, and seeds of Amaranthus retroflexus are seeded thereon. Thereafter, the pot is placed in a greenhouse, and the weed is grown.
A 30 cm to 40 cm stem cutting of sugar cane is placed on a wet soil, and germination is stimulated. The stem cutting from which a bud has grown to about 1 cm is selected, and the length of the stem cutting is adjusted to be 3 cm so that the stem cutting has one node. Azaconazole, bitertanol, bromoconazole, cyproconazole, difenoconazole, diniconazole, epoxyconazole, fenbuconazole, fluquinconazole, flusilazole, flutriafol, hexaconazole, imibenconazole, ipconazole, metconazole, myclobutanil, penconazole, propiconazole, prothioconazole, simeconazole, tebuconazole, tetraconazole, triadimenol, triticonazole, fenarimol, nuarimol, pyrifenox, imazalil, oxpoconazole fumarate, pefurazoate, procloraz or triflumizole is adhered to the stem cutting.
as §4

[12] = tested on: Amaranthus retroflexus; test: Herbicidal activity, soil surface spray, metalaxyl-treated stem cutting (Example 12); format: in vivo; details: 3 cm stem cutting treated with metalaxyl or metalaxyl-M, four weeks after treatment
Method: A soil is packed into a plastic pot. Seeds of Amaranthus retroflexus are seeded thereon.

[13] = tested on: Amaranthus retroflexus; test: Herbicidal activity, spray above weed before planting, metalaxyl-treated stem cutting (Example 13); format: in vivo; details: sprayed above weed, 3 cm stem cutting treated with metalaxyl or metalaxyl-M planted one week after treatment, four weeks after treatment
Source text: A 30 cm to 40 cm stem cutting of sugar cane is placed on a wet soil, and germination is stimulated. The stem cutting from which a bud has grown to about 1 cm is selected, and the length of the stem cutting is adjusted to be 3 cm so that the stem cutting has one node. Metalaxyl or metalaxyl-M is adhered to the stem cutting.

[14] = tested on: sugar cane; test: Phytotoxicity on sugar cane, spray above weed before planting, metalaxyl-treated stem cutting (Example 13)
Method: as §1
A soil is packed into a plastic pot, and seeds of Amaranthus retroflexus are seeded thereon. Thereafter, a pot is placed in a greenhouse, and the weed is grown.
as §3, with “has” for “has been”, “node. Metalaxyl or metalaxyl-M is adhered to the stem cutting.” for “node.”
as §4

Row | SMILES | herbicidal activity against Amaranthus retroflexus [1] | phytotoxicity ([2]; Example 5, sprayed above weed three weeks after seeding, 3 cm stem cutting planted one week after treatment, four weeks after treatment) | herbicidal activity against Amaranthus retroflexus [3] | phytotoxicity ([4]; Example 7, sprayed above weed, 3 cm stem cutting treated with clothianidin, thiamethoxiam, imidacloprid, dinotefuran, nitenpyram, acetamiprid or thiacloprid planted one week after treatment, four weeks after treatment) | herbicidal activity against Amaranthus retroflexus [5] | herbicidal activity against Amaranthus retroflexus [6] | phytotoxicity ([7]; Example 9, sprayed above weed, 3 cm stem cutting treated with kresoxim-methyl, azoxystrobin or another listed strobilurin fungicide planted one week after treatment, four weeks after treatment) | herbicidal activity against Amaranthus retroflexus [8] | phytotoxicity ([9]; Example 10, 3 cm stem cutting treated with azaconazole, bitertanol or another listed azole-type fungicide, soil surface spray, four weeks after treatment) | herbicidal activity against Amaranthus retroflexus [10] | phytotoxicity ([11]; Example 11, sprayed above weed, 3 cm stem cutting treated with azaconazole, bitertanol or another listed azole-type fungicide planted one week after treatment, four weeks after treatment) | herbicidal activity against Amaranthus retroflexus [12] | herbicidal activity against Amaranthus retroflexus [13] | phytotoxicity ([14]; Example 13, sprayed above weed, 3 cm stem cutting treated with metalaxyl or metalaxyl-M planted one week after treatment, four weeks after treatment) | phytotoxicity ([2]; in vivo) | phytotoxicity ([4]; in vivo) | phytotoxicity ([7]; in vivo) | phytotoxicity ([9]; in vivo) | phytotoxicity ([11]; in vivo) | phytotoxicity ([14]; in vivo)
1 | CCOc1cc(Oc2ccc(C(F)(F)F)cc2Cl)ccc1[N+](=O)[O-] [oxyfluorfen] | the controlling effect on a weed can be confirmed | significant phytotoxicity on sugar cane is not found | the controlling effect on a weed can be confirmed | significant phytotoxicity on sugar cane is not observed | the controlling effect on a weed can be confirmed | the controlling effect on a weed can be confirmed | significant phytotoxicity on sugar cane is not observed | the control effect on a weed can be confirmed | significant phytotoxicity on sugar cane is not observed | the controlling effect on a weed can be confirmed | significant phytotoxicity on sugar cane is not observed | the controlling effect on a weed can be confirmed | the controlling effect on a weed can be confirmed | significant phytotoxicity on sugar cane is not observed | – | – | – | – | – | –
2 | Cc1nn(-c2cc(NS(C)(=O)=O)c(Cl)cc2Cl)c(=O)n1C(F)F [sulfentrazone] | the controlling effect on a weed can be confirmed | – | the controlling effect on a weed can be confirmed | – | the controlling effect on a weed can be confirmed | the controlling effect on a weed can be confirmed | – | the control effect on a weed can be confirmed | – | the controlling effect on a weed can be confirmed | – | the controlling effect on a weed can be confirmed | the controlling effect on a weed can be confirmed | – | significant phytotoxicity on sugar cane is not found | significant phytotoxicity on sugar cane is not observed | significant phytotoxicity on sugar cane is not observed | significant phytotoxicity on sugar cane is not observed | significant phytotoxicity on sugar cane is not observed | significant phytotoxicity on sugar cane is not observed
